Data on six compounds can be found in BindingDB's records for PubMed 32883635 (National Institute of Pharmaceutical Education and Research …, 2020).

Molecules are shown by their SMILES.

One test has as its target T1, Enoyl-[acyl-carrier-protein] reductase [NADPH] FabI (Staphylococcus aureus (strain MRSA252), UniProt Q6GI75).
T1 sequence (Q6GI75 whole entry): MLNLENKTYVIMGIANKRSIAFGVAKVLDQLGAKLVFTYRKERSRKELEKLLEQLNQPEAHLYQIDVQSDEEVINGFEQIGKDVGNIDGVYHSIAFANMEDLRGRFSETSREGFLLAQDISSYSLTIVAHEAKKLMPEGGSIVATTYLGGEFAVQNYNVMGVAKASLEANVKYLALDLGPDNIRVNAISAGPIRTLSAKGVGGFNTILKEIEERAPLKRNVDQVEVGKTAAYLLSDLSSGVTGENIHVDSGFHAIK
In words: Inhibition of Staphylococcus aureus FabI assessed as inhibition of bacterial growth by measuring the NADH consumption rate at 20 mins.
`NS(=O)(=O)c1ccc(/N=C/C2=C(Cl)CCC=C2)cc1`: the IC50 (as a rule, the concentration needed to halve the response being measured) was 0.35 nM.
Same read-out and setting: then `NS(=O)(=O)C1C=CC(NC(=O)CCCN2CCOCC2)C=C1` (stereo unspecified), with 0.31 nM; and `COc1cc(/C=N/c2ccc(S(N)(=O)=O)cc2)ccc1C(C)=O`, with 0.33 nM.

Biological target in a further test: not listed separately
The test is described as follows: Inhibition of wild type Escherichia coli FabI assessed as inhibition of bacterial growth.
`Oc1ccccc1Oc1ccccc1` [2-phenoxylphenol]: the Ki (usually a dissociation constant, usually derived from enzyme kinetics or from competition with a known ligand) worked out at 0.5 nM.
With `Cc1ccc(Oc2ccccc2)c(O)c1` [PT53], the Ki was 7 nM.
As to `Oc1cc(F)ccc1Oc1ccccc1` [PT55], the Ki amounted to 0.7 nM.
